Among the data in patent publication US20210253575A1, “PYRROLIDINE AMINE COMPOUNDS FOR THE TREATMENT OF AUTOIMMUNE DISEASE” (Hoffmann-La Roche Inc., priority 2018, published 2021) are IC50 values, retold here.

Molecules are shown by their SMILES.

Broadly, the IC50 is the midpoint of a concentration-inhibition curve. A higher IC50 goes with weaker potency in that assay.

In this test the target is T1, human TLR9 (Homo sapiens, UniProt Q9NR96).
T1 sequence (Q9NR96 26-1032): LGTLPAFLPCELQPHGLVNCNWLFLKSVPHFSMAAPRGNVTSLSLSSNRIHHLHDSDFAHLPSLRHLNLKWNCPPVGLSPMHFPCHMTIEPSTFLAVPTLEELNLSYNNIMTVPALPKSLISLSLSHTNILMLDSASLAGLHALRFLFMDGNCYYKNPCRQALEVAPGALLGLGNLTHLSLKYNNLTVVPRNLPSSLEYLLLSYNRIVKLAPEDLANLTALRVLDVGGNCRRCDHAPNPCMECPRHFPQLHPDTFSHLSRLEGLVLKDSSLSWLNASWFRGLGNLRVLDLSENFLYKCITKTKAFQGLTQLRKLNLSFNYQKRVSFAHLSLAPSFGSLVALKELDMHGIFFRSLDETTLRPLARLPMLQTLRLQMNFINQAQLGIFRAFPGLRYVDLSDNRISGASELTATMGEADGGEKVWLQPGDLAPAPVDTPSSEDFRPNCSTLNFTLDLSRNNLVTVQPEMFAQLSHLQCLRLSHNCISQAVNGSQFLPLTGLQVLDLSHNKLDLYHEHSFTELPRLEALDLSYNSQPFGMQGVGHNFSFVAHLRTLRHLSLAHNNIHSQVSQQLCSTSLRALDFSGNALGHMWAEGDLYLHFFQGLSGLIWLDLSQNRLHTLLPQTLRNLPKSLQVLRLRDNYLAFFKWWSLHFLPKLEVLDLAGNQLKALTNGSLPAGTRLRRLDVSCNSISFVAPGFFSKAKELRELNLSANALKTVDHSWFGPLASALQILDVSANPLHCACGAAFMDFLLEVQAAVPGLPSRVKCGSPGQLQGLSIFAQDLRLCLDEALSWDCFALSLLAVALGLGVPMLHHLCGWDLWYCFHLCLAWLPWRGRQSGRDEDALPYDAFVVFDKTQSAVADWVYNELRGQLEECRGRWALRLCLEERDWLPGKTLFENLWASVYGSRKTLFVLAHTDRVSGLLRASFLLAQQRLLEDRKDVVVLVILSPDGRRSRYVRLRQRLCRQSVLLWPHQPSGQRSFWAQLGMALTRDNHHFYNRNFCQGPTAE
Nature of the test: HEK293-Blue-hTLR-9 cells assay (SEAP reporter, ODN2006 stimulation). The test is classed as cell-based. The conditions noted are these: HEK293-Blue-hTLR9 cells, ODN2006 ligand, 20 hrs incubation. The protocol: The following tests were carried out in order to determine the activity of the compounds of formula (I) in HEK293-Blue-hTLR-7/8/9 cells assay.
HEK293-Blue-hTLR-9 Cells Assay:
A stable HEK293-Blue-hTLR-9 cell line was purchased from InvivoGen (Cat. #: hkb-htlr9, San Diego, Calif., USA). These cells were originally designed for studying the stimulation of human TLR9 by monitoring the activation of NF-κB. A SEAP (secreted embryonic alkaline phosphatase) reporter gene was placed under the control of the IFN-β minimal promoter fused to five NF-κB and AP-1-binding sites. The SEAP was induced by activating NF-κB and AP-1 via stimulating HEK-Blue hTLR9 cells with TLR9 ligands. Therefore the reporter expression was declined by TLR9 antagonist under the stimulation of a ligand, such as ODN2006 (Cat. #: tlrl-2006-1, Invivogen, San Diego, Calif., USA), for incubation of 20 hrs. The cell culture supernatant SEAP reporter activity was determined using QUANTI-Blue™ kit (Cat. #: rep-qb1, Invivogen, San Diego, Calif., USA) at a wavelength of 640 nm, a detection medium that turns purple or blue in the presence of alkaline phosphatase.
HEK293-Blue-hTLR9 cells were incubated at a density of 250,000˜450,000 cells/mL in a volume of 170 μL in a 96-well plate in Dulbecco's Modified Eagle's medium (DMEM) containing 4.5 g/L glucose, 50 U/mL penicillin, […], […], 2 mM L-glutamine, 10% (v/v) heat-inactivated fetal bovine serum with addition of 20 μL test compound in a serial dilution in the presence of final DMSO at 1% and 10 μL of 20 uM ODN2006 in above DMEM, perform incubation under 37° C. in a CO2incubator for 20 hrs. Then 20 μL of the superatant from each well was incubated with 180 μL Quanti-blue substrate solution at 37° C. for 2 hrs and the absorbance was read at 620˜655 nm using a spectrophotometer. The signalling pathway that TLR9 activation leads to downstream NF-κB activation has been widely accepted, and therefore similar reporter assay was modified for evaluating TLR9 antagonist.
Take `N#Cc1ccc(N2CC(CN3CCC4(CC3)CNCCO4)C3(CC3)C2)c2nccnc12` (centres unmarked) [Example 49, 8-[7-(1-Oxa-4,9-diazaspiro[5.5]undecan-9-ylmethyl)-5-azaspiro[2.4]heptan-5-yl]quinoxaline-5-carbonitrile]: 87 nM corresponded to half-maximal inhibition (IC50).

For the compound `N#Cc1ccc(N2CC(CN3CC4CCNCC43)C3(CC3)C2)c2nccnc12` (centres unmarked) [Example 50, 8-[7-(3,8-Diazabicyclo[4.2.0]octan-8-ylmethyl)-5-azaspiro[2.4]heptan-5-yl]quinoxaline-5-carbonitrile], the IC50 came to 259 nM.

Regarding `N#Cc1ccc(N2C[C@H](CN3CCC(N)CC3)[C@@H](C(F)(F)F)C2)c2nccnc12` [Example 51, 8-[(3S,4R)-3-[(4-amino-1-piperidyl)methyl]-4-(trifluoromethyl)pyrrolidin-1-yl]quinoxaline-5-carbonitrile], inhibition was half-maximal at 359 nM (IC50).

`N#Cc1ccc(N2C[C@H](CN3CCC(N4CCNCC4)CC3)[C@@H](C(F)(F)F)C2)c2cccnc12` [Example 52, 5-[(3S,4R)-3-[(4-piperazin-1-yl-1-piperidyl)methyl]-4-(trifluoromethyl)pyrrolidin-1-yl]quinoline-8-carbonitrile] gave an IC50 of 208 nM.

Compound `N#Cc1ccc(N2C[C@H](CN3CC4(CC(N)C4)C3)[C@@H](C(F)(F)F)C2)c2cccnc12` [Example 53, 5-[(3S,4R)-3-[(6-Amino-2-azaspiro[3.3]heptan-2-yl)methyl]-4-(trifluoromethyl)pyrrolidin-1-yl]quinoline-8-carbonitrile] had an IC50 of 219 nM.

Turning to `N#Cc1ccc(N2C[C@H](CN3CCC4(CCNC4)CC3)[C@@H](C(F)(F)F)C2)c2cccnc12` [Example 54, 5-[(3S,4R)-3-(2,8-Diazaspiro[4.5]decan-8-ylmethyl)-4-(trifluoromethyl)pyrrolidin-1-yl]quinoline-8-carbonitrile], it took 152 nM to reach half-maximal inhibition (IC50).

The compound `N#Cc1ccc(N2C[C@H](CN3CCC4(CCCNC4)CC3)[C@@H](C(F)(F)F)C2)c2cccnc12` [Example 55, 5-[(3S,4R)-3-(2,9-Diazaspiro[5.5]undecan-9-ylmethyl)-4-(trifluoromethyl)pyrrolidin-1-yl]quinoline-8-carbonitrile] came in with a concentration for half-maximal inhibition (IC50) of 173 nM.

Regarding `N#Cc1ccc(N2C[C@H](CN3CCC4(CCNCC4)C3)[C@@H](C(F)(F)F)C2)c2cccnc12` [Example 56, 5-[(3S,4R)-3-(2,8-Diazaspiro[4.5]decan-2-ylmethyl)-4-(trifluoromethyl)pyrrolidin-1-yl]quinoline-8-carbonitrile], the IC50 is 159 nM.

In turn, `N#Cc1ccc(N2C[C@H](CN3CCCC4(CCNCC4)C3)[C@@H](C(F)(F)F)C2)c2cccnc12` [Example 57, 5-[(3S,4R)-3-(2,9-Diazaspiro[5.5]undecan-2-ylmethyl)-4-(trifluoromethyl)pyrrolidin-1-yl]quinoline-8-carbonitrile] registered an IC50 of 331 nM.

`N#Cc1ccc(N2CC(CN3CCC(N4CCOCC4)CC3)C3(CC3)C2)c2nccnc12` (centres unmarked) [Example 58, 8-[7-[(4-Morpholino-1-piperidyl)methyl]-5-azaspiro[2.4]heptan-5-yl]quinoxaline-5-carbonitrile] gave an IC50 of 605 nM.

`N#Cc1ccc(N2C[C@H](CN3CCNCC3)[C@@H](C(F)(F)F)C2)c2nccnc12` [Example 59, 8-[(3S,4R)-3-(Piperazin-1-ylmethyl)-4-(trifluoromethyl)pyrrolidin-1-yl]quinoxaline-5-carbonitrile] gave an IC50 of 2700 nM.

`N#Cc1ccc(N2C[C@H](CN3CCC(N4CCCC4)CC3)[C@@H](C(F)(F)F)C2)c2nccnc12` [Example 60, 8-[(3S,4R)-3-[(4-Pyrrolidin-1-yl-1-piperidyl)methyl]-4-(trifluoromethyl)pyrrolidin-1-yl]quinoxaline-5-carbonitrile] yielded an IC50 of 509 nM.

Regarding `N#Cc1ccc(N2C[C@H](CN3CCC(N4CCCCC4)CC3)[C@@H](C(F)(F)F)C2)c2nccnc12` [Example 61, 8-[(3S,4R)-3-[[4-(1-Piperidyl)-1-piperidyl]methyl]-4-(trifluoromethyl)pyrrolidin-1-yl]quinoxaline-5-carbonitrile], the IC50 was 438 nM.

As to `N#Cc1ccc(N2C[C@H](CN3CCC(N4CCCCCC4)CC3)[C@@H](C(F)(F)F)C2)c2nccnc12` [Example 62, 8-[(3S,4R)-3-[[4-(Azepan-1-yl)-1-piperidyl]methyl]-4-(trifluoromethyl)pyrrolidin-1-yl]quinoxaline-5-carbonitrile], 409 nM corresponded to half-maximal inhibition (IC50).

In the case of `N#Cc1ccc(N2C[C@H](CN3C4CCC3CC(N)C4)[C@@H](C(F)(F)F)C2)c2nccnc12` (stereo partly drawn) [Example 63, 8-[(3S,4R)-3-[(3-amino-8-azabicyclo[3.2.1]octan-8-yl)methyl]-4-(trifluoromethyl)pyrrolidin-1-yl]quinoxaline-5-carbonitrile], inhibition was half-maximal at 294 nM (IC50).

In the case of `N#Cc1ccc(N2C[C@H](CN3CCC(N)C(F)(F)C3)[C@@H](C(F)(F)F)C2)c2nccnc12` (stereo partly drawn) [Example 64, 8-[(3S,4R)-3-[(4-amino-3,3-difluoro-1-piperidyl)methyl]-4-(trifluoromethyl)pyrrolidin-1-yl]quinoxaline-5-carbonitrile], the IC50 amounted to 23100 nM.

`N#Cc1ccc(N2CC(CN3CCC4(CCCCN4)CC3)C3(CC3)C2)c2nccnc12` (centres unmarked) [Example 65, 8-[7-(1,9-Diazaspiro[5.5]undecan-9-ylmethyl)-5-azaspiro[2.4]heptan-5-yl]quinoxaline-5-carbonitrile]: half-maximal inhibition (IC50) was put at 68 nM.

`N#Cc1ccc(N2CC(CN3CCC4NCC4C3)C3(CC3)C2)c2nccnc12` (centres unmarked) [Example 66, 8-[7-(3,7-Diazabicyclo[4.2.0]octan-3-ylmethyl)-5-azaspiro[2.4]heptan-5-yl]quinoxaline-5-carbonitrile]: half-maximal inhibition (IC50) was put at 123 nM.

The compound `N#Cc1ccc(N2CC(CN3CCOC4(CCNCC4)C3)C3(CC3)C2)c2nccnc12` (centres unmarked) [Example 67, 8-[7-(1-Oxa-4,9-diazaspiro[5.5]undecan-4-ylmethyl)-5-azaspiro[2.4]heptan-5-yl]quinoxaline-5-carbonitrile] had an IC50 of 869 nM.

As to `N#Cc1ccc(N2CC(CN3CCC(N)CC3)C3(CC3)C2)c2nccnc12` (centres unmarked) [Example 68, 8-[7-[(4-Amino-1-piperidyl)methyl]-5-azaspiro[2.4]heptan-5-yl]quinoxaline-5-carbonitrile], the IC50 was found to be 93 nM.

The compound `N#Cc1ccc(N2C[C@H](CN3CCCC(C(N)=O)C3)[C@@H](C(F)(F)F)C2)c2nccnc12` (stereo partly drawn) [Example 69, 1-[[(3S,4R)-1-(S-cyanoquinoxalin-5-yl)-4-(trifluoromethyl)pyrrolidin-3-yl]methyl]piperidine-3-carboxamide] registered an IC50 of 15700 nM.

`N#Cc1ccc(N2C[C@H](CN3CCC4(CC3)CNCCO4)[C@@H](C(F)(F)F)C2)c2nccnc12` [Example 70, 8-[(3S,4R)-3-(1-oxa-4,9-diazaspiro[5.5]undecan-9-ylmethyl)-4-(trifluoromethyl)pyrrolidin-1-yl]quinoxaline-5-carbonitrile]: the IC50 was found to be 253 nM.

The compound `N#Cc1ccc(N2C[C@H](CNC3CCNCC3)[C@@H](C(F)(F)F)C2)c2nccnc12` [Example 71, 8-[(3S,4R)-3-[(4-piperidylamino)methyl]-4-(trifluoromethyl)pyrrolidin-1-yl]quinoxaline-5-carbonitrile] had an IC50 of 87 nM.
